± gives the expanded uncertainty stated by the source.
Conditions: Liquid; for speed of sound: Single path-length method; for mass density: Vibrating tube method

CCCCCCCCCCCCCCCC [hexadecane]
Conditions	mass density [kg/m3]	speed of sound [m/s]
290.65 K, 83 kPa	775 ± 0.7	1367.2 ± 5.6
291.15 K, 83 kPa	774.7 ± 0.7	1365.3 ± 5.6
291.65 K, 83 kPa	774.4 ± 0.7	1363.4 ± 5.5
292.15 K, 83 kPa	774 ± 0.7	1361.5 ± 5.5
292.65 K, 83 kPa	773.6 ± 0.7	1359.6 ± 5.5
293.15 K, 83 kPa	773.3 ± 0.7	1357.7 ± 5.5
298.15 K, 83 kPa	769.8 ± 0.7	1338.8 ± 5.4
303.15 K, 83 kPa	766.4 ± 0.7	1320.2 ± 5.4
308.15 K, 83 kPa	762.9 ± 0.7	1301.7 ± 5.3
310 K, 1110 kPa	761.74 ± 1.6	–
310 K, 2710 kPa	762.85 ± 1.6	–
310 K, 5870 kPa	765.01 ± 1.6	–
310 K, 10770 kPa	768.25 ± 1.6	–
310 K, 15700 kPa	771.38 ± 1.7	–
310 K, 20650 kPa	774.41 ± 1.7	–
310 K, 25600 kPa	777.3 ± 1.7	–
310 K, 34700 kPa	782.46 ± 1.7	–
310 K, 36730 kPa	783.55 ± 1.7	–
313.15 K, 83 kPa	759.4 ± 0.6	1283.4 ± 5.2
318.15 K, 83 kPa	756 ± 0.6	1265.3 ± 5.2
323.15 K, 83 kPa	752.5 ± 0.6	1247.4 ± 5.1
328.15 K, 83 kPa	749.1 ± 0.6	1229.8 ± 5
330 K, 1130 kPa	748.39 ± 1.6	–
330 K, 2730 kPa	749.66 ± 1.6	–
330 K, 5890 kPa	752.03 ± 1.6	–
330 K, 10790 kPa	755.61 ± 1.6	–
330 K, 15740 kPa	759.04 ± 1.7	–
330 K, 20680 kPa	762.35 ± 1.7	–
330 K, 25980 kPa	765.74 ± 1.7	–
330 K, 36160 kPa	771.9 ± 1.7	–
330 K, 38240 kPa	773.11 ± 1.7	–
330 K, 45960 kPa	777.44 ± 1.7	–
333.15 K, 83 kPa	745.6 ± 0.6	1212.3 ± 5
338.15 K, 83 kPa	742.2 ± 0.6	1194.9 ± 4.9
343.15 K, 83 kPa	738.7 ± 0.6	1177.9 ± 4.8
350 K, 1020 kPa	734.55 ± 1.6	–
350 K, 2630 kPa	735.94 ± 1.6	–
350 K, 5790 kPa	738.58 ± 1.6	–
350 K, 10710 kPa	742.54 ± 1.6	–
350 K, 15650 kPa	746.27 ± 1.7	–
350 K, 20600 kPa	749.88 ± 1.7	–
350 K, 25560 kPa	753.33 ± 1.7	–
350 K, 36140 kPa	760.24 ± 1.7	–
350 K, 40130 kPa	762.7 ± 1.7	–
370 K, 1030 kPa	720.83 ± 1.6	–
370 K, 2620 kPa	722.35 ± 1.6	–
370 K, 5780 kPa	725.3 ± 1.6	–
370 K, 10710 kPa	729.65 ± 1.6	–
370 K, 15660 kPa	733.76 ± 1.7	–
370 K, 20610 kPa	737.69 ± 1.7	–
370 K, 25580 kPa	741.44 ± 1.7	–
370 K, 34010 kPa	747.41 ± 1.7	–
370 K, 41340 kPa	752.26 ± 1.7	–
390 K, 1040 kPa	706.5 ± 1.6	–
390 K, 2630 kPa	708.23 ± 1.6	–
390 K, 5790 kPa	711.5 ± 1.6	–
390 K, 10690 kPa	716.31 ± 1.6	–
390 K, 15650 kPa	720.83 ± 1.7	–
390 K, 20600 kPa	725.12 ± 1.7	–
390 K, 25550 kPa	729.18 ± 1.7	–
390 K, 35160 kPa	736.52 ± 1.7	–
390 K, 39900 kPa	739.91 ± 1.7	–
390 K, 44320 kPa	742.94 ± 1.7	–
390 K, 46900 kPa	744.61 ± 1.7	–
410 K, 1080 kPa	692.52 ± 1.6	–
410 K, 2680 kPa	694.47 ± 1.6	–
410 K, 5830 kPa	698.12 ± 1.6	–
410 K, 10750 kPa	703.47 ± 1.7	–
410 K, 15700 kPa	708.47 ± 1.7	–
410 K, 20630 kPa	713.12 ± 1.7	–
410 K, 25570 kPa	717.52 ± 1.7	–
410 K, 30420 kPa	721.61 ± 1.7	–
410 K, 37220 kPa	726.98 ± 1.7	–
410 K, 44820 kPa	732.63 ± 1.7	–
410 K, 50700 kPa	736.75 ± 1.8	–
430 K, 970 kPa	677.73 ± 1.6	–
430 K, 2590 kPa	679.9 ± 1.6	–
430 K, 5770 kPa	684.04 ± 1.6	–
430 K, 10650 kPa	689.93 ± 1.7	–
430 K, 15590 kPa	695.44 ± 1.7	–
430 K, 20560 kPa	700.57 ± 1.7	–
430 K, 25530 kPa	705.37 ± 1.7	–
430 K, 30420 kPa	709.84 ± 1.7	–
430 K, 39590 kPa	717.56 ± 1.7	–
430 K, 44320 kPa	721.28 ± 1.8	–
430 K, 48490 kPa	724.39 ± 1.8	–
450 K, 960 kPa	662.64 ± 1.6	–
450 K, 2560 kPa	665.22 ± 1.6	–
450 K, 5750 kPa	669.98 ± 1.6	–
450 K, 10620 kPa	676.53 ± 1.7	–
450 K, 15590 kPa	682.65 ± 1.7	–
450 K, 20560 kPa	688.27 ± 1.7	–
450 K, 25530 kPa	693.48 ± 1.7	–
450 K, 30800 kPa	698.66 ± 1.7	–
450 K, 39150 kPa	706.2 ± 1.7	–
450 K, 43400 kPa	709.8 ± 1.8	–
450 K, 45310 kPa	711.32 ± 1.8	–
470 K, 1070 kPa	648.42 ± 1.6	–
470 K, 2660 kPa	651.24 ± 1.6	–
470 K, 5770 kPa	656.4 ± 1.6	–
470 K, 10730 kPa	663.85 ± 1.7	–
470 K, 15690 kPa	670.57 ± 1.7	–
470 K, 20640 kPa	676.69 ± 1.7	–
470 K, 25530 kPa	682.28 ± 1.7	–
470 K, 30470 kPa	687.53 ± 1.7	–
470 K, 38870 kPa	695.7 ± 1.8	–
470 K, 42790 kPa	699.27 ± 1.8	–
470 K, 47790 kPa	703.6 ± 1.8	–

Reference: the NIST ThermoML archive (doi:10.1016/j.jct.2010.01.003)
